Measurements as given in ChEMBL document CHEMBL1201862, “PubChem BioAssay data set” (2004).
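Method: 48-hour compound exposure of cells in 96-well plates, five concentrations, linear interpolation of endpoints. At the GI50, growth is halved.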 Activity calls are given as the source filed them. No stated cut-off is given here; in the data, active = GI50 up to about 1.1 µM and inactive = higher.

How the values were obtained:
Experiment in all cases: NCI-60 cell line screen, 48 h
U-251 = test system: U-251
NCI-H226 = test system: NCI-H226
M14 = test system: M14
OVCAR-4 = test system: OVCAR-4
PC-3 = test system: PC-3
MDA-N = test system: MDA-N
A498 = test system: A498
SK-OV-3 = test system: SK-OV-3
DU-145 = test system: DU-145
MDA-MB-231 = test system: MDA-MB-231
UO-31 = test system: UO-31
EKVX = test system: EKVX
COLO 205 = test system: COLO 205
OVCAR-5 = test system: OVCAR-5
SF-539 = test system: SF-539
SNB-19 = test system: SNB-19
HCC 2998 = test system: HCC 2998
MCF7 = test system: MCF7
SR = test system: SR
HL-60 = test system: HL-60

Measured: GI50

O=[N+]([O-])C(/C(Cl)=C(/Cl)N1CCCCC1)=C1\NCCO1
inactive: U-251 > 100 µM | NCI-H226 > 100 µM | M14 > 100 µM | OVCAR-4 > 100 µM | PC-3 > 100 µM | MDA-N > 100 µM | A498 > 100 µM | SK-OV-3 > 100 µM | DU-145 > 100 µM | MDA-MB-231 > 100 µM | UO-31 > 100 µM | EKVX > 100 µM | COLO 205 > 100 µM | OVCAR-5 > 100 µM | SF-539 > 100 µM | SNB-19 > 100 µM | HCC 2998 > 100 µM | MCF7 > 100 µM

CC(=O)N1C(OCc2ccccc2)CCN1c1ccccc1 (centres undefined)
inactive: SR > 10 µM | NCI-H226 > 10 µM | M14 > 10 µM | OVCAR-4 > 10 µM | PC-3 > 10 µM | MDA-N > 10 µM | SK-OV-3 > 10 µM | DU-145 > 10 µM | MDA-MB-231 > 10 µM | UO-31 > 10 µM | COLO 205 > 10 µM | OVCAR-5 > 10 µM | SF-539 > 10 µM | SNB-19 > 10 µM | HL-60 > 10 µM

O=C(NCCCN(CCCCN(CCCNC(=O)C(F)(F)F)Cc1ccc2ccccc2c1)Cc1ccc2ccccc2c1)C(F)(F)F
inactive: U-251 3.91 µM | SR 2.7 µM | NCI-H226 > 100 µM | M14 1.99 µM | OVCAR-4 2.62 µM | PC-3 6.95 µM | A498 > 100 µM | SK-OV-3 > 100 µM | DU-145 > 100 µM | MDA-MB-231 > 100 µM | UO-31 2.33 µM | EKVX > 100 µM | COLO 205 1.95 µM | OVCAR-5 > 100 µM | SF-539 4.62 µM | HCC 2998 1.53 µM | MCF7 1.95 µM
active: HL-60 0.74 µM

COC(=O)c1cc(C#N)[nH]c1-c1cccs1
inactive: U-251 > 100 µM | SR > 100 µM | NCI-H226 > 100 µM | M14 > 100 µM | OVCAR-4 > 100 µM | PC-3 47.1 µM | MDA-N > 100 µM | A498 37.8 µM | SK-OV-3 > 100 µM | DU-145 86.9 µM | MDA-MB-231 52.7 µM | UO-31 81.8 µM | EKVX 91.2 µM | COLO 205 > 100 µM | OVCAR-5 > 100 µM | SF-539 > 100 µM | SNB-19 > 100 µM | HCC 2998 > 100 µM
